The values that follow come from patent publication US9926318B2, “Tetracyclic autotaxin inhibitors” (PharmAkea, Inc., priority 2013, dated 2018).

As a reminder, the IC50 is the point on the concentration scale where inhibition reaches its midpoint. The low end stands for greater potency, the high end for weaker potency.

Some results are limits rather than exact numbers.

The target of this assay is human autotaxin (ATX) (Homo sapiens (Human), UniProt Q13822). The assay can be described thus: Human autotaxin assay (choline release from LPC, Hep3B conditioned media). The format is biochemical. Conditions: concentrated conditioned media from Hep3B cells, LPC substrate. On the procedure:
ATX activity is assayed in concentrated conditioned media from Hep3B human hepatocellular carcinoma cells by measuring the amount of choline released from the substrate, lysophosphatidylcholine (LPC) as it is cleaved to LPA. Conditioned media is collected from confluent Hep3B cells and concentrated 20-fold using Centriprep-30 filter devices (Millipore). […] 100 μl of a color mix containing 4.5 mM 4-aminoantipyrine, 2.7 mM N-ethyl-N-(2-hydroxy-3-sulfopropyl)-m-toluidine, 21 units/ml horseradish peroxidase and 3 units/ml choline oxidase in 50 mM Tris, pH 8, 4.5 mM MgCl2 is added and the incubation continued for 15 minutes at room temperature before reading the absorbance at 555 nm.
With `O=C(O)CCCN1C(=O)C2Cc3c(n(CCCc4ccccc4)c4ccccc34)CN2C1=O` (racemic) [Compound 1-7, 4-(1,3-dioxo-6-(3-phenylpropyl)-11,11a-dihydro-1H-imidazo[1′,5′:1,6]pyrido[3,4-b]indol-2(3H,5H,6H)-yl)butanoic acid], the IC50 was below 500 nM.

For the compound `O=C1NCC2Cc3c(n(Cc4ccc(F)cc4)c4ccccc34)CN12` (racemic) [Compound 1-13, 6-(4-fluorobenzyl)-5,6,11,11a-tetrahydro-1H-imidazo[1′,5′:1,6]pyrido[3,4-b]indol-3(2H)-one], the IC50 was below 500 nM.

For the compound `CN1CC2Cc3c(n(Cc4ccc(F)cc4)c4ccccc34)CN2C1=O` (racemic) [Compound 1-14, 6-(4-fluorobenzyl)-2-methyl-5,6,11,11a-tetrahydro-1H-imidazo[1′,5′:1,6]pyrido[3,4-b]indol-3(2H)-one], the IC50 was below 500 nM.

The compound `O=C1NCC(=O)N2Cc3c(c4ccccc4n3Cc3ccc(F)cc3)CC12` (racemic) [Compound 1-16, 7-(4-fluorobenzyl)-2,3,6,7,12,12a-hexahydropyrazino[1′,2′:1,6]pyrido[3,4-b]indole-1,4-dione] came in with an IC50 below 500 nM.

Compound `O=C(O)CN1CC2Cc3c(n(Cc4ccc(F)cc4)c4ccccc34)CN2C1=O` (racemic) [Compound 1-20, 2-(6-(4-fluorobenzyl)-3-oxo-11,11a-dihydro-1H-imidazo[1′,5′:1,6]pyrido[3,4-b]indol-2(3H,5H,6H)-yl)acetic acid] registered an IC50 of 500 to 1000 nM.

As for `O=C(O)CN1CC(=O)N2Cc3c(c4ccccc4n3Cc3ccc(F)cc3)CC2C1=O` (racemic) [Compound 1-23, 2-(7-(4-fluorobenzyl)-1,4-dioxo-3,4,6,7,12,12a-hexahydropyrazino[1′,2′:1,6]pyrido[3,4-b]indol-2(1H)-yl)acetic acid], the IC50 is below 500 nM.

Compound `CN1C(=O)C2Cc3c(n(Cc4ccc(F)cc4)c4ccccc34)CN2C1=O` (racemic) [Compound 1-129, 6-(4-fluorobenzyl)-2-methyl-5,6,11,11a-tetrahydro-1H-imidazo[1′,5′:1,6]pyrido[3,4-b]indole-1,3(2H)-dione] came in with an IC50 below 500 nM.

In turn, `N#CCN1C(=O)C2Cc3c(n(Cc4ccc(F)cc4)c4ccccc34)CN2C1=O` (racemic) [Compound 1-139, 2-(6-(4-fluorobenzyl)-1,3-dioxo-5,6,11,11a-tetrahydro-1H-imidazo[1′,5′:1,6]pyrido[3,4-b]indol-2(3H)-yl)acetonitrile] returned an IC50 below 500 nM.

`O=C1C2Cc3c(n(Cc4ccc(F)cc4)c4ccccc34)CN2C(=O)N1Cc1nn[nH]n1` (racemic) [Compound 1-140, 2-((2H-tetrazol-5-yl)methyl)-6-(4-fluorobenzyl)-5,6,11,11a-tetrahydro-1H-imidazo[1′,5′:1,6]pyrido[3,4-b]indole-1,3(2H)-dione] returned an IC50 below 500 nM.

In turn, `CC1(C)c2c(n(Cc3ccc(F)cc3)c3ccccc23)CN2C(=O)NC(=O)C21` (racemic) [Compound A110, 6-(4-fluorobenzyl)-11,11-dimethyl-5,6,11,11a-tetrahydro-1H-imidazo[1′,5′:1,6]pyrido[3,4-b]indole-1,3(2H)-dione] showed an IC50 below 500 nM.

`CC1(C)c2c(n(Cc3ccc(F)cc3)c3ccccc23)CN2C(=O)NC(=O)C21` (single isomer, unassigned) [A110 ent A, 6-(4-fluorobenzyl)-11,11-dimethyl-5,6,11,11a-tetrahydro-1H-imidazo[1′,5′:1,6]pyrido[3,4-b]indole-1,3(2H)-dione] showed an IC50 below 500 nM.

For the compound `CC1(C)c2c(n(Cc3ccc(F)cc3)c3ccccc23)CN2C(=O)NC(=O)C21` (single isomer, unassigned) [A110 ent B, 6-(4-fluorobenzyl)-11,11-dimethyl-5,6,11,11a-tetrahydro-1H-imidazo[1′,5′:1,6]pyrido[3,4-b]indole-1,3(2H)-dione], the IC50 was below 500 nM.

Turning to `O=C(O)CCN1C(=O)C2Cc3c(n(Cc4ccc(F)cc4)c4ncccc34)CN2C1=O` (single isomer, unassigned; enta) [C114 entA, 3-{8-[(4-fluorophenyl)methyl]-12,14-dioxo-6.8.11.13-tetraazatetracyclo[7.7.0.02, 7.011,15]hexadeca-1(9),2(7),3,5-tetraen-13-yl}propionic acid], the IC50 was below 500 nM.

Regarding `O=C(O)CCN1C(=O)C2Cc3c(n(Cc4ccc(F)cc4)c4ncccc34)CN2C1=O` (single isomer, unassigned; entb) [C114 entB, 3-{8-[(4-fluorophenyl)methyl]-12,14-dioxo-6.8.11.13-tetraazatetracyclo[7.7.0.02, 7.011,15]hexadeca-1(9),2(7),3,5-tetraen-13-yl}propionic acid], the IC50 was below 500 nM.

The compound `O=C(O)CCCN1C(=O)[C@@H]2Cc3c(n(Cc4ccc(F)cc4)c4ccccc34)CN2C1=O` [Compound 1-2, (S)-4-(6-(4-fluorobenzyl)-1,3-dioxo-11,11a-dihydro-1H-imidazo[1′,5′:1,6]pyrido[3,4-b]indol-2(3H,5H,6H)-yl)butanoic acid] had an IC50 below 500 nM.

Regarding `O=C(O)CCCN1C(=O)[C@H]2Cc3c(n(Cc4ccc(F)cc4)c4ccccc34)CN2C1=O` [Compound 1-3, (R)-4-(6-(4-fluorobenzyl)-1,3-dioxo-11,11a-dihydro-1H-imidazo[1′,5′:1,6]pyrido[3,4-b]indol-2(3H,5H,6H)-yl)butanoic acid], the IC50 is below 500 nM.

For the compound `O=C1OCC2Cc3c(n(Cc4ccc(F)cc4)c4ccccc34)CN12` (centres unmarked) [Compound 1-8, 6-(4-fluorobenzyl)-5,6,11,11a-tetrahydrooxazolo[3′,4′:1,6]pyrido[3,4-b]indol-3(1H)-one], the IC50 is below 500 nM.

`O=C1OC[C@@H]2Cc3c(n(Cc4ccc(F)cc4)c4ccccc34)CN12` [Compound 1-9, (S)-6-(4-fluorobenzyl)-5,6,11,11a-tetrahydrooxazolo[3′,4′:1,6]pyrido[3,4-b]indol-3(1H)-one] displayed an IC50 below 500 nM.

In turn, `O=C1OC[C@H]2Cc3c(n(Cc4ccc(F)cc4)c4ccccc34)CN12` [Compound 1-10, (R)-6-(4-fluorobenzyl)-5,6,11,11a-tetrahydrooxazolo[3′,4′:1,6]pyrido[3,4-b]indol-3(1H)-one] came in with an IC50 above 1000 nM.

Turning to `COc1ccc(Cn2c3c(c4ccccc42)C[C@H]2C(=O)N(CCCC(=O)O)C(=O)N2C3)cn1` [Compound 1-11, (S)-4-(6-((6-methoxypyridin-3-yl)methyl)-1,3-dioxo-11,11a-dihydro-1H-imidazo[1′,5′:1,6]pyrido[3,4-b]indol-2(3H,5H,6H)-yl)butanoic acid], the IC50 is below 500 nM.

`COc1ccc(Cn2c3c(c4ccccc42)C[C@H]2C(=O)N(CCC(=O)O)C(=O)N2C3)cn1` [Compound 1-12, (S)-3-(6-((6-methoxypyridin-3-yl)methyl)-1,3-dioxo-11,11a-dihydro-1H-imidazo[1′,5′:1,6]pyrido[3,4-b]indol-2(3H,5H,6H)-yl)propanoic acid] registered a half-maximal inhibitory concentration (IC50) below 500 nM.

With `COc1ccc(Cn2c3c(c4ccccc42)C[C@H]2C(=O)N(CC4(C(=O)O)CC4)C(=O)N2C3)cn1` [Compound 1-18, (S)-1-((6-((6-methoxypyridin-3-yl)methyl)-1,3-dioxo-5,6,11,11a-tetrahydro-1H-imidazo[1′,5′:1,6]pyrido[3,4-b]indol-2(3H)-yl)methyl)cyclopropane-1-carboxylic acid], the half-inhibitory concentration (IC50) is below 500 nM.

As to `O=C(O)CN1C(=O)C2Cc3c(n(Cc4ccc(F)cc4)c4ccccc34)CN2C1=O` (centres unmarked) [Compound 1-19, 2-(6-(4-fluorobenzyl)-1,3-dioxo-5,6,11,11a-tetrahydro-1H-imidazo[1′,5′:1,6]pyrido[3,4-b]indol-2(3H)-yl)acetic acid], the IC50 is below 500 nM.

The compound `O=C(O)CCN1CC2Cc3c(n(Cc4ccc(F)cc4)c4ccccc34)CN2C1=O` (centres unmarked) [Compound 1-21, 3-(6-(4-fluorobenzyl)-3-oxo-11,11a-dihydro-1H-imidazo[1′,5′:1,6]pyrido[3,4-b]indol-2(3H,5H,6H)-yl)propanoic acid] registered an IC50 below 500 nM.

The compound `O=C(O)CCN1CC(=O)N2Cc3c(c4ccccc4n3Cc3ccc(F)cc3)CC2C1=O` (centres unmarked) [Compound 1-24, 3-(7-(4-fluorobenzyl)-1,4-dioxo-3,4,6,7,12,12a-hexahydropyrazino[1′,2′:1,6]pyrido[3,4-b]indol-2(1H)-yl)propanoic acid] displayed an IC50 below 500 nM.

The compound `O=C1NC(=O)N2Cc3c(c4ccc(Cl)cc4n3Cc3ccc(F)cc3)C[C@@H]12` [Compound 1-26, (S)-8-chloro-6-(4-fluorobenzyl)-5,6,11,11a-tetrahydro-1H-imidazo[1′,5′:1,6]pyrido[3,4-b]indole-1,3(2H)-dione] yielded an IC50 above 1000 nM.

`O=C(O)CCCN1C(=O)[C@@H]2Cc3c(n(Cc4ccc(F)cc4)c4cc(Cl)ccc34)CN2C1=O` [Compound 1-27, (S)-4-(8-chloro-6-(4-fluorobenzyl)-1,3-dioxo-5,6,11,11a-tetrahydro-1H-imidazo[1′,5′:1,6]pyrido[3,4-b]indol-2(3H)-yl)butanoic acid] displayed an IC50 above 1000 nM.

Turning to `CC(C)(CN1C(=O)[C@@H]2Cc3c(n(Cc4ccc(F)cc4)c4ccccc34)CN2C1=O)C(=O)O` [Compound 1-30, (S)-3-(6-(4-fluorobenzyl)-1,3-dioxo-5,6,11,11a-tetrahydro-1H-imidazo[1′,5′:1,6]pyrido[3,4-b]indol-2(3H)-yl)-2,2-dimethylpropanoic acid], the IC50 is below 500 nM.

On to `O=C1[C@@H]2Cc3c(n(Cc4ccc(F)cc4)c4ccccc34)CN2C(=O)N1CC1(C(=O)O)CC1` [Compound 1-34, (S)-1-((6-(4-fluorobenzyl)-1,3-dioxo-5,6,11,11a-tetrahydro-1H-imidazo[1′,5′:1,6]pyrido[3,4-b]indol-2(3H)-yl)methyl)cyclopropane-1-carboxylic acid], for which the IC50 was below 500 nM.
